Experimental data: US20240268385A1, “PEST CONTROL COMPOSITION” (DAIKIN INDUSTRIES, LTD., priority 2021, published 2024)
Where two headings read alike, the source gives them in different places.

Columns and labels:
[1] = system: blast disease pathogens; details: 500 ppm spray, rice seedlings at 2.5-leaf stage, 8 days in humid room
Experimental: (§1) 9 parts by mass of a subagent of a formulation (xylene:DMF:Solpol 3005X (Toho Chemical Industry Co., Ltd.)=4:4:1) was mixed with 1 part by mass of dexmedetomidine (Wako) to prepare a 10% emulsion. A diluted solution of the 10% emulsion with a predetermined concentration was prepared by using a spreading agent, Grameen S (Toyo Green Co., Ltd.), diluted 10000-fold with water. Sample crops were individually sprayed with a sufficient amount of the diluted chemical solution by using a spray gun.
Test Method for Blast Disease Pathogen
Seedlings at the 2.5-leaf stage were sprayed with the chemical solution, and placed in a humid room for 8 days with blast disease pathogens, followed by measuring the area of lesions. The preventive value was calculated from the ratio to the untreated group according to the following formula (N):
(§2) Preventive value=100−(damage in treated group/damage in untreated group)×100 (N)

[2] = system: Nilaparvata lugens (Three-instar Larva); test: whole plant or invertebrate; details: in Oryza sativa, 144 h
Experimental: as §1
(§3) Test Method for Nilaparvata lugens (Third-Instar Larva) and Nephotettix cincticeps (Third-Instar Larvae)
(§4) After the sample crops were sprayed with the chemical solution, they were air-dried, and 10 test insects were released. To prevent the escape of the test insects, plants were covered with cups and nylon gauze. The mortality rate was calculated from the number of surviving insects after 6 days, and the corrected mortality rate was calculated from the following formula:
(§5) Corrected mortality rate (%)=[(survival rate of untreated group−survival rate of treated group)/survival rate of untreated group]×100

[3] = system: Nephotettix cincticeps (Three-instar Larva); test: whole plant or invertebrate; details: in Oryza sativa, 144 h
Experimental: as §1, §3, §4, §5

[4] = system: Frankliniella occidentalis (First-instar Larva); test: whole plant or invertebrate; details: in Brassica oleracea, 120 h
Experimental: as §1
(§6) Test Method for Bemisia tabaci (Adult) and Frankliniella Occidentalis (First-Instar Larva)
(§7) After the sample crops were sprayed with the chemical solution, they were air-dried, and then the leaves were cut and stored in cups. While test insects were released, the number of insects released was counted, and the cups were covered with a lid. The mortality rate was calculated from the number of surviving insects after 2 days for Bemisia tabaci and after 5 days for Frankliniella occidentalis. Their corrected mortality rate was calculated from the following formula:
as §5

[5] = system: Bemisia tabaci (Adult Insect); test: whole plant or invertebrate; details: in Brassica oleracea, 48 h
Experimental: as §1, §6, §7, §5

[6] = system: brown blotch disease pathogens; details: 500 ppm spray, cucumbers at 2-leaf stage, 8 days in humid room
Experimental: as §1, §2
Test Method for Brown Blotch Disease Pathogen
Cucumbers at the 2-leaf stage were sprayed with the chemical solution and inoculated with a spray of a spore suspension of brown blotch disease pathogens, and then placed in a humid room for 8 days. The area of lesions on leaves was measured, and the preventive value was calculated according to formula (N).

[7] = system: phytophthora disease pathogens; details: in vivo
[8] = system: sheath blight fungi; details: 500 ppm spray, rice plants at 5-leaf stage, 6 days in humid room
[9] = read-out: Insect Mortality Rate
[10] = read-out: Insect Mortality Rate (Corrected)

Q: Which results are given for `Cc1cccc([C@H](C)c2cnc[nH]2)c1C` [Chemical Agent, dexmedetomidine]?
A: Blast Disease Expansion Area Percentage [1]: 0%; Blast Disease Preventive Value [1]: 100; mortality at 100 ppm [2, 9]: 100%; mortality at 500 ppm [2, 9]: 100%; mortality at 100 ppm [2, 10]: 100%; mortality at 500 ppm [2, 10]: 100%; mortality at 100 ppm [3, 9]: 100%; mortality at 500 ppm [3, 9]: 100%; mortality at 100 ppm [3, 10]: 100%; mortality at 500 ppm [3, 10]: 100%; mortality at 100 ppm [4, 9]: 100%; mortality at 500 ppm [4, 9]: 100%; mortality at 100 ppm [4, 10]: 100%; mortality at 500 ppm [4, 10]: 100%; mortality at 100 ppm [5, 9]: 100%; mortality at 500 ppm [5, 9]: 100%; mortality at 100 ppm [5, 10]: 100%; mortality at 500 ppm [5, 10]: 100%; Brown Blotch Disease Expansion Area [6]: 2%; Brown Blotch Disease Preventive Value [6]: 86; Phytophthora Expansion Area [7]: 15%; Phytophthora Preventive Value [7]: 84; Sheath Blight Disease Lesion Elongation [8]: 3 mm; Sheath Blight Disease Preventive Value [8]: 98
